Experimental data from paper PMC11077991, “The small molecule CBR-5884 inhibits the Candida albicans phosphatidylserine synthase” (mBio, 2024).
Values after ≈ are worked out from the molar mass of the structure shown. Where two headings read alike, the source gives them in different places.

Assays:
[1] = tested on: wild-type C. albicans strain SC5314; assay: CLSI MIC broth microdilution; type: cell-based, Candida albicans; conditions: Candida albicans
Method: We then tested the effects of the six compounds on live cells by determining the minimal inhibitory concentrations (MICs) of these compounds. Following the standard Clinical & Lab Standards Institute (CLSI) MIC broth microdilution methods, wild-type C. albicans strain SC5314 was grown with avasimibe, CBR-5884, tideglusib, ebselen, ML-345, and LOC14 in RPMI MOPS medium (pH 7.0) or alternatively in minimal medium or minimal medium with HEPES (pH 7.0) at 37°C for 48 h, along with a cho1ΔΔ strain as a control (Fig. 3A through C). The concentration of the compounds was varied from 0.5 to 250 µM. […] Ebselen, LOC14, and CBR-5884, on the contrary, stopped cell growth at different concentrations in all three media, with MICs ranging between 7.8 and 31.3 μM (Fig. 3A through D). […] Specific MIC values are summarized in Fig. 3D for all the compounds.
Minimum inhibitory concentration (MIC) was determined following Clinical & Lab Standards Institute (CLSI) MIC broth microdilution protocol (Licensed to Todd Reynolds, license # Ord-1138682) ([98], [99]). Briefly, stock solutions of different compounds (purchased from MedChemExpress) were prepared at a concentration of 10 mM in DMSO and subsequently diluted as required in the same solvent. Wild-type C. albicans strain SC5314, as well as four additional wild-type strains—GDH2346, 3153A, TFPY412, and TFPY2307, were cultured overnight in YPD medium at 30°C, washed with water three times, and then diluted to a concentration of 2 × 10^3 cells/mL (OD600 = 0.00008) in one of the three media [minimal medium, minimal medium buffered with 50 mM HEPES (pH 7.0) and RPMI MOPS (pH 7.0)]. The cho1ΔΔ strain was also included as a control. A volume of 100 µL from each cell suspension was dispensed into the wells of a flat-bottom 96-well plate. An additional 100 µL of corresponding medium, containing twice the final desired concentration of each drug, was added to each well, leading to a final initial inoculum of 1 × 10^3 cells/mL (OD600 = 0.00004). The final DMSO concentration was maintained at 2.5% across all treatments. Following preparation, the plates were incubated at 37°C for 48 h and photos were taken with a Bio-Rad Gel Doc XR + Imaging System.

[2] = tested on: C. albicans strains GDH2346, 3153A, TFPY412 and TFPY2307; assay: CLSI MIC broth microdilution, additional wild-type strains; type: cell-based, Candida albicans; conditions: RPMI MOPS pH 7.0, 37°C, 48 h
Method: Furthermore, there are no current reports on the antifungal effects of LOC14 and CBR-5884. To rule out the possibility that their inhibition is strain-specific, we treated four additional C. albicans wildtype strains—GDH2346 ([54]), 3153A ([55]), and two clinical isolates TFPY412 and TFPY2307—with LOC14 and CBR-5884. Tests were done in RPMI MOPS (pH 7.0) medium at 37°C for 48 h following the CLSI MIC broth microdilution protocol, and a cho1ΔΔ strain was included as a control (Fig. 3E and F).
Minimum inhibitory concentration (MIC) was determined following Clinical & Lab Standards Institute (CLSI) MIC broth microdilution protocol (Licensed to Todd Reynolds, license # Ord-1138682) ([98], [99]). Briefly, stock solutions of different compounds (purchased from MedChemExpress) were prepared at a concentration of 10 mM in DMSO and subsequently diluted as required in the same solvent. Wild-type C. albicans strain SC5314, as well as four additional wild-type strains—GDH2346, 3153A, TFPY412, and TFPY2307, were cultured overnight in YPD medium at 30°C, washed with water three times, and then diluted to a concentration of 2 × 10^3 cells/mL (OD600 = 0.00008) in one of the three media [minimal medium, minimal medium buffered with 50 mM HEPES (pH 7.0) and RPMI MOPS (pH 7.0)]. The cho1ΔΔ strain was also included as a control. […]

cho1ΔΔ strain = assay: growth of cho1ΔΔ strain in rich YPD media; type: cell-based, Candida albicans
[3] = tested on: wild-type C. albicans strain SC5314; assay: plate assays, CFU counting and growth curves in minimal media; type: cell-based, Candida albicans; conditions: for fungistatic or fungicidal effect (CFUs vs pre-incubation): 30 µM ebselen, 430 µM LOC14, 170 µM CBR-5884; for fungistatic or fungicidal effect (CFUs vs pre-incubation) / rescue of CFUs by 1 mM ethanolamine: 24 h; for rescue of CFUs by 1 mM ethanolamine: optimized drug concentrations (CBR-5884 ≥170 µM), minimal medium
Method: The antifungal effects of ebselen, LOC14 ,and CBR-5884 on live cells were further evaluated by plate assays and growth curves. First, we tried to determine if the inhibitory effects of these compounds were fungistatic or fungicidal. It should be highlighted that in contrast to the MIC assays, the plate assays and growth curve analyses necessitated a greater initial inoculum (OD600 of 0.05 as opposed to 0.00004) for detection. Additionally, a reduced incubation temperature of 30°C instead of 37°C was required to inhibit the hyphal formation, which, in turn, required the adjustment of compound concentrations used. For this, wild-type C. albicans strain SC5314 was grown with varying concentrations of ebselen, LOC14, and CBR-5884 in minimal media at 30°C for 24 h, along with a cho1ΔΔ strain as a control. […] To further determine the optimized inhibitory concentrations and whether the inhibition is fungistatic or fungicidal, wild-type C. abicans SC5314 was then incubated with ebselen, LOC14, and CBR-5884 in a dosage series with 10 µM increments within the inhibition range determined above, and colony forming units (CFUs) were counted after 24 h incubation.
Plate assays and growth curves were conducted in minimal media or minimal media supplemented with 1 mM ethanolamine (ETA). Wild-type SC5314 and cho1ΔΔ strains were grown in YPD overnight and washed three times with H2O before inoculation. The starting OD600 is 0.05 for both plate assays and growth curves. For plate assays, both wild-type and cho1ΔΔ strains were grown in flat-bottom 96-well plates at a final volume of 200 µL, in the presence of different compounds or DMSO as indicated at 30°C. The final DMSO concentration was maintained at 2.5% across all treatments. A Leica inverted microscope was then used to visualize growth after 24 h incubations. In the meantime, cells grown in different compounds were subjected to live cell counting. Cell cultures from flat-bottom 96-well plates after 24 h incubation were diluted 100–10,000 times before plating on the minimal media, and the total colony-forming unit (CFU) was kept within 200 for each plate. A total of six biological replicates were done in each condition.
The growth curves with LOC14 and CBR-5884 treatments were measured from 2 to 30 h with OD600 measurements every 2 h. A final concentration of 170 µM CBR-5884, 430 µM LOC14, and 5 mM serine was added into each group as indicated. To test the stability of CBR-5884, minimal medium supplemented with 170 µM CBR-5884 or equivalent DMSO was agitated for 12 h before the introduction of wildtype C. albicans SC5314 strain, and growth curves were recorded from 0 to 14 h with OD600 measurement every 2 h. To check the resistance of C. albicans in CBR-5884, SC5314 strain was grown in 170 µM CBR-5884 for 12 and 24 h before being diluted in fresh minimal medium supplemented with fresh 170 µM CBR-5884 or equivalent DMSO. The growth curves were recorded from 0 to 14 h with OD600 measurement every 2 h. The final DMSO concentration was maintained at 1.7% across all treatments.

[4] = precipitation in MIC media; type: physicochemical
C57BL/6 j mice = tested on: C57BL/6 j mice; design: method as in PMID 25848045; conditions: high dose of 20 mg/kg; cited from earlier work
[5] = SC5314, 48 h, pH 7, read-out: Minimal Inhibitory Concentration (MIC): MM, HEPES 7.0
[6] = SC5314, 48 h, pH 7, read-out: Minimal Inhibitory Concentration (MIC): RPMI, MOPS 7.0
[7] = SC5314, 48 h, read-out: MICs across all three media
[8] = SC5314, 48 h, read-out: Minimal Inhibitory Concentration (MIC): MM

SMILES | MIC [1, 5] | MIC [1, 6] | MIC [1, 7] | MIC [1, 8] | growth inhibition of four additional wild-type strains [2] | growth of the cho1ΔΔ strain (cho1ΔΔ strain) | fungistatic or fungicidal effect (CFUs vs pre-incubation) [3] | effect of ethanolamine on growth rate and lag time ([3]; 170 µM CBR-5884, 1 mM ethanolamine) | effect of 5 mM serine on growth inhibition ([3]; 170 µM CBR-5884, growth curve 0-30 h) | duration of growth delay ([3]; 170 µM CBR-5884, minimal medium, 30°C) | rescue of CFUs by 1 mM ethanolamine [3] | solubility in MIC media [4] | tolerability (C57BL/6 j mice) | growth curve in presence or absence of ethanolamine ([3]; 430 µM LOC14, 0-30 h) | MIC ([1]; SC5314, RPMI MOPS pH 7.0, 37°C, 48 h, read-out: Minimal Inhibitory Concentration (MIC): RPMI, MOPS 7.0) | MIC ([1]; SC5314, minimal medium with 50 mM HEPES pH 7.0, 37°C, 48 h, read-out: Minimal Inhibitory Concentration (MIC): MM, HEPES 7.0) | MIC ([1]; SC5314, minimal medium, 37°C, 48 h, read-out: Minimal Inhibitory Concentration (MIC): MM) | MIC ([1]; SC5314, minimal medium, minimal medium HEPES, RPMI MOPS, 37°C, 48 h, read-out: MICs across all three media) | CFU/μL after 24 h incubation with ethanolamine ([3]; 30 µM ebselen + 1 mM ETA)
CCOC(=O)c1sc(NC(=O)c2ccco2)c(SC#N)c1C [CBR-5884] | 31.3 µM (≈ 10.5 µg/mL) | 31.3 µM (≈ 10.5 µg/mL) | 7.8 to 31.3 µM (≈ 2.62 to 10.5 µg/mL) | 7.8 µM (≈ 2.62 µg/mL) | all strains were inhibited | decreases growth | fungistatic effect | significantly increased the growth rate and decreased the lag time | serine did not help the cells recover | 12 h | significantly higher CFUs | precipitated at high concentrations | – | – | – | – | – | – | –
O=C(C1CC1)N1CCN(Cn2sc3ccccc3c2=O)CC1 [LOC14] | 15.6 µM (≈ 4.95 µg/mL) | 31.3 µM (≈ 9.94 µg/mL) | 7.8 to 31.3 µM (≈ 2.48 to 9.94 µg/mL) | 15.6 µM (≈ 4.95 µg/mL) | all strains were inhibited | – | fungistatic effect | – | – | – | did not rescue | – | well tolerated | no cells grew | – | – | – | – | –
O=c1c2ccccc2[se]n1-c1ccccc1 [Ebselen] | – | – | – | – | – | – | fungicidal effect | – | – | – | did not rescue | – | – | – | 7.8 µM (≈ 2.14 µg/mL) | 15.6 µM (≈ 4.28 µg/mL) | 7.8 µM (≈ 2.14 µg/mL) | 7.8 to 31.3 µM (≈ 2.14 to 8.58 µg/mL) | 0 CFU/μL
